# Measured values reported in publication PMC5626944 (Frontiers in Pharmacology, 2017).
# Read-outs that look alike come from different tables or passages of the source.
# Legend:
# Sigma 2 = assay: NovaScreen competition binding; settings: 1 µM
# Adrenergic, Alpha 1B = test system: T1, Adrenergic, Alpha 1B; assay: NovaScreen competition binding; settings: 1 µM
# T1 construct: PerkinElmer – Caliper Life Sciences (NovaScreen service)
# Serotonin, 5HT2C = assay: NovaScreen competition binding; settings: 1 µM
# [1] = test system: WT, α6L9′S, α6KO, α4KO and β2KO mice; assay: Conditioned place preference; type: in vivo, mouse; settings: for ED50: Mus musculus, read-out: CPP ED50
# From the text: Male, 3–6-month-old mice were used in our CPP assays. Various genotypes were used: WT, α6L9′S, α4L9′S (hypersensitive […]), α6KO, α4KO, and β2KO. All WT mice were C57BL/6J and all other genotypes have been backcrossed with C57BL/6J mice for ≥10 generations. The CPP apparatus (Med Associates, East Fairfield, VT, United States) was a rectangular cage with interior dimensions of 46.5 × 12.7 × 12.7(H) cm, divided into three sub-compartments: white and black (each 16.8 cm L) with steel mesh and rod floors, respectively, and a central gray compartment (7.2 cm L) with a solid plastic floor. […] Drop-down doors separated the chambers.
# Mice were housed singly and habituated to the experimental room for 3–7 days before initial testing and remained in the experimental room for the duration of the experiment. We chose a biased method for CPP. On day 1 (pre-training) mice were placed in the center chamber and allowed to explore the apparatus freely for 20 min. Time spent in each chamber was recorded, and drug pairing was determined by the least preferred chamber. Mice with a severe initial bias for one chamber (defined as ≥65% time spent in one conditioning chamber) were excluded. On days 2, 4, 6, and 8, mice were injected with the drug of interest, and were confined to the drug-paired chamber for 20 min. On days 3, 5, 7, and 9, mice were injected with saline and confined to the opposite chamber. On day 10 (post-training), mice were again given free access to the apparatus for 20 min, and the time spent in each chamber was recorded. CPP was determined by measuring the change in the difference between the time spent in the drug-paired chamber and the saline-paired chamber from pre- to post-training.
# Sigma 1 = assay: NovaScreen competition binding; settings: 1 µM
# [2] = test system: T2, Phosphodiesterase, PDE4A1A (h); assay: NovaScreen enzyme assay; type: biochemical, human; settings: 1 µM
# T2 construct: PerkinElmer – Caliper Life Sciences (NovaScreen service)
# Dopamine, D3 = assay: NovaScreen competition binding; settings: 1 µM
# Dopamine, D4.4 (h) = assay: NovaScreen competition binding; parameters: species or system human; settings: 1 µM
# Serotonin, 5HT6 (h) = assay: NovaScreen competition binding; parameters: species or system human; settings: 1 µM
# [3] = molecular target: T3, High-sensitivity α4(2)β2(3) nAChRs (Mus musculus, UniProt O70174+Q9ERK7); assay: 86Rb+ efflux from thalamic and cortical synaptosomes, DhβE-sensitive component; type: biochemical
# T3 construct: from tissue; host or cells: WT mouse thalamic and cortical synaptosomes
# T3 sequence (Q9ERK7 26-501): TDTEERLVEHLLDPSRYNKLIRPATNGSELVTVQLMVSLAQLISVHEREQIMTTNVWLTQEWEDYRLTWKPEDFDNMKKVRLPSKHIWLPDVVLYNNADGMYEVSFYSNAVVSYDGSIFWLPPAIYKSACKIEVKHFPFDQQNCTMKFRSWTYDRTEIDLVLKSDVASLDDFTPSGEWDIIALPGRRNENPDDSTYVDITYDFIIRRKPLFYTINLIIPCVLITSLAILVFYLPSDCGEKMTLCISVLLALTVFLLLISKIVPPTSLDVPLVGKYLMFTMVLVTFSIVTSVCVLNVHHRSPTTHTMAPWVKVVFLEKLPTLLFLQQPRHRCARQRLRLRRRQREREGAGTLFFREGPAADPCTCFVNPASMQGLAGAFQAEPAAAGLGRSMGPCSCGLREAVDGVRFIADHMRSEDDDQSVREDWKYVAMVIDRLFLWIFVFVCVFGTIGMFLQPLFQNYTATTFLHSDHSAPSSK
# T3 sequence (O70174 31-629): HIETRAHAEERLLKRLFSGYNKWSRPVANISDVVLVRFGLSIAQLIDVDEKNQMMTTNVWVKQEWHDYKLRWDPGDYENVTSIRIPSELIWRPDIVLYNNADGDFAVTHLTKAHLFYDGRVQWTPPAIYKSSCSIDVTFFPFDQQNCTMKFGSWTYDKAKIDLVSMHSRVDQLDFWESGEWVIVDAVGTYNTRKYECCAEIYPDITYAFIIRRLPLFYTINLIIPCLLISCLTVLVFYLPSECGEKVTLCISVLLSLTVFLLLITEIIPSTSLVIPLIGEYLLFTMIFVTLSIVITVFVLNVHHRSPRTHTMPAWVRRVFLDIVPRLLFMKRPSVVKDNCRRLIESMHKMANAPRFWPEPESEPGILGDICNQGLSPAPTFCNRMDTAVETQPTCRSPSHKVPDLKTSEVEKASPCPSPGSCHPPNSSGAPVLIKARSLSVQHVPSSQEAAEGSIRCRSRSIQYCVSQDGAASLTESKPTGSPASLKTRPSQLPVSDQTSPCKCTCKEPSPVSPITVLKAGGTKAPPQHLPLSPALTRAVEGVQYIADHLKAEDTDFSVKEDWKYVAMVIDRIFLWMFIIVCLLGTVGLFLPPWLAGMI
# Description: (§1) Regions of interest were dissected from fresh mouse brains and homogenized in ice-cold isotonic sucrose (0.32 M), buffered with HEPES (5 mM, pH 7.5). The suspension was centrifuged at 12,000 × g for 20 min.
# [4] = In vitro metabolism in microsomes; type: in vitro ADME; settings: human microsomes
# [5] = test system: GABA, Chloride, TBOB Site; assay: NovaScreen competition binding; settings: 1 µM
# [6] = molecular target: T4, Low-sensitivity α4(3)β2(2) nAChRs (Mus musculus, UniProt O70174+Q9ERK7); assay: 86Rb+ efflux from thalamic and cortical synaptosomes, DhβE-insensitive component; type: biochemical
# T4 construct: from tissue; host or cells: WT mouse thalamic and cortical synaptosomes
# T4 sequence (O70174 31-629): as above
# T4 sequence (Q9ERK7 26-501): as the sequence (Q9ERK7 26-501) above
# Description: as §1
# [7] = test system: Glutamate, Kainate Site (Ionotropic); assay: NovaScreen competition binding; settings: 1 µM
# α6-GFPβ2DMβ3 nAChRs = molecular target: T5, α6-GFPβ2DMβ3 nAChRs (Mus musculus, UniProt Q9ERK7+Q9R0W9, L349M/R365A/R366A/R368A); assay: Whole-cell patch-clamp recordings in transfected neuro-2a cells; type: cell-based
# T5 construct: expressed in transfected cells; host or cells: mouse neuroblastoma neuro-2a (ATCC CCL-131)
# T5 sequence (Q8BMN3 31-464, stated change not applied): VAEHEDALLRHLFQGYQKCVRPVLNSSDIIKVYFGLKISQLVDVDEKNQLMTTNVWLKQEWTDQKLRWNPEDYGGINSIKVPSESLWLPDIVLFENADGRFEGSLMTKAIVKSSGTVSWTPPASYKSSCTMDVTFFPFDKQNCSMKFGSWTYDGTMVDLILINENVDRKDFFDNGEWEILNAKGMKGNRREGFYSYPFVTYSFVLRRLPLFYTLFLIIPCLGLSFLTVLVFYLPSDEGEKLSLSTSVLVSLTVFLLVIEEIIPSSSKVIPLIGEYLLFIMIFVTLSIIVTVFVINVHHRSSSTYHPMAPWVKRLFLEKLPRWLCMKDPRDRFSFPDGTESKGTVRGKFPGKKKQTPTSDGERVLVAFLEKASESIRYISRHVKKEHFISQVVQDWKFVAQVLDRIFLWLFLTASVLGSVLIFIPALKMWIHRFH
# T5 sequence (Q9R0W9 31-494): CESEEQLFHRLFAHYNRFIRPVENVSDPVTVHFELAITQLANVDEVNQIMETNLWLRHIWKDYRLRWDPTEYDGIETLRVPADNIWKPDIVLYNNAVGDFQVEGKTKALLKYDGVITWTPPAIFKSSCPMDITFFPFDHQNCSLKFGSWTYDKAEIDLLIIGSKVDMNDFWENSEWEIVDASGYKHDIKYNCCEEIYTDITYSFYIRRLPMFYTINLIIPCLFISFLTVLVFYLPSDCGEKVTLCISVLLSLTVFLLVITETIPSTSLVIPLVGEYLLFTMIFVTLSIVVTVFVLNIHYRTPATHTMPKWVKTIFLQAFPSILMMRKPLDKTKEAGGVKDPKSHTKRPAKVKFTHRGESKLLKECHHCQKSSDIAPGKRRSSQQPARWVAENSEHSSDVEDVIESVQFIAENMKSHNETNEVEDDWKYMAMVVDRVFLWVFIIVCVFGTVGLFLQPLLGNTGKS
# T5 sequence (Q9ERK7 26-501 L349M/R365A/R366A/R368A): as the sequence (Q9ERK7 26-501) above, with L324M, R340A, R341A, R343A counted along it
# Description: (§2) Cells were transfected with 500 ng of: α4-GFP and β2DM or α6-GFP, β2DM, and β3 nAChR subunits.
# (§3) For the patch-clamp experiments, we used mouse neuro-2a cells. […] Transfected cells displaying eGFP fluorescence were identified for patching using an inverted epifluorescence microscope. […] The resistance of the patch pipettes was 2–4 MΩ. The extracellular solution contained (in mM): 140 NaCl, 5 KCl, 2 CaCl2, 1 MgCl2, 10 HEPES, and 10 glucose (320 mOsm, pH set to 7.3 with Tris-base). […] The data were sampled at 10 kHz and low-pass filtered at 2 kHz prior to digitization. All experiments were performed at 24°C and the recording chamber was continually perfused with extracellular solution. To avoid receptor desensitization by repetitive agonist application, agonists were applied at intervals ≥3 min. An Octaflow II superfusion system (ALA Scientific Instruments) was used to apply the agonist for concentration-response studies. Applications were 500 ms at 6 psi. […] Following the collection of the full concentration range an additional test pulse was repeated to assess accumulated desensitization.
# (§4) Data were fit to a single Hill term using Origin 10 software. Data are expressed as mean ± SEM.
# α4-GFPβ2DM nAChRs = molecular target: T6, α4-GFPβ2DM nAChRs (Mus musculus, UniProt O70174+Q9ERK7, L349M/R365A/R366A/R368A); assay: as above; type: cell-based; settings: α4β2 single component, transfected in Neuro-2a cells
# T6 construct: expressed in transfected cells; host or cells: mouse neuroblastoma neuro-2a (ATCC CCL-131)
# T6 sequence (O70174 31-629): as the sequence (O70174 31-629) above
# T6 sequence (Q9ERK7 26-501 L349M/R365A/R366A/R368A): as the sequence (Q9ERK7 26-501) above, with L324M, R340A, R341A, R343A counted along it
# Description: as §2, §3, §4
# Angiotensin II, AT1 (h) = test system: T7, Angiotensin II, AT1 (h); assay: NovaScreen competition binding; parameters: species or system human; settings: 1 µM
# T7 construct: PerkinElmer – Caliper Life Sciences (NovaScreen service)
# [8] = In vitro metabolism in microsomes; type: in vitro ADME; settings: rat microsomes
smiles,measurement,setting,value
"C1=C(/c2cncnc2)CCCNCC/1 [TC299423, (E)-5-(pyrimidin-5-yl)-1,2,3,4,7,8-hexahydroazocine]",Hit,Sigma 2,FALSE
same,Inhibition,Sigma 2; [3H]-DTG,-0.65%
same,Hit,"Adrenergic, Alpha 1B",FALSE
same,Inhibition,"Adrenergic, Alpha 1B; [3H]-7-MeOxy-Prazosin",-8.31%
same,Hit,"Serotonin, 5HT2C",FALSE
same,Inhibition,"Serotonin, 5HT2C; [3H]Mesulergine",-2.21%
same,CPP difference scores in α4KO mice vs WT,[1]; 0.012 mg/kg,no effect
same,CPP difference scores in α6KO and β2KO mice vs WT,[1]; 0.012 mg/kg,dramatically reduced
same,ED50,"[1]; WT mice, Michaelis–Menten fit",4 ± 3 µg/kg
same,ED50,[1]; α6L9′S mice,< 1 µg/kg
same,CPP difference score vs saline-injected control,"[1]; WT mice, 0.012 mg/kg, t-test p = 0.047",marginally significant increase
same,Overall effect on CPP,"[1]; WT mice, 1, 4, 12, 25 μg/kg, one-way ANOVA",no significant overall effect
same,Overall effect on the CPP difference score,"[1]; α6L9′S mice, 1, 4, 12, 25 μg/kg, one-way ANOVA",highly significant overall effect
same,CPP difference score vs saline-injected controls,"[1]; α6L9′S mice, 1 and 25 μg/kg, Tukey HSD p < 0.05",significantly greater than the saline-injected controls
same,Hit,Sigma 1,FALSE
same,Inhibition,Sigma 1; [3H]-(+)-Pentazocine,-0.52%
same,Hit,[2],FALSE
same,Hit,"Dopamine, D3",FALSE
same,Inhibition,"Dopamine, D3; [3H]7-OH-DPAT",-16.93%
same,Hit,"Dopamine, D4.4 (h)",FALSE
same,Inhibition,"Dopamine, D4.4 (h); [3H]-YM-09151-2",-2.44%
same,Hit,"Serotonin, 5HT6 (h)",FALSE
same,Inhibition,"Serotonin, 5HT6 (h); [3H]-LSD",8.87%
same,86Rb+ efflux Efficacy,[3]; Cortex,94 ± 7%
same,EC50,"[3]; Cortex, read-out: 86Rb+ efflux EC50",2 ± 2 µM
same,86Rb+ efflux Efficacy,[3]; Thalamus,139 ± 14%
same,EC50,"[3]; Thalamus, read-out: 86Rb+ efflux EC50",0.6 ± 0.1 µM
same,EC50,"[3]; thalamic and cortical synaptosomes, read-out: EC50 for the DhβE-sensitive α4β2* nAChRs",0.6 to 2 µM
same,Half-life compared to varenicline,[4],~7 fold
same,half-life,[4],4.75 h
same,microsomal CLint,[4]; read-out: Clearance,5 µL/min/mg
same,Hit,[5],FALSE
same,Inhibition,[5]; [3H]TBOB,6.83%
same,86Rb+ efflux Efficacy,[6]; Cortex,39 ± 4%
same,EC50,[6]; Cortex,26 ± 21 µM
same,86Rb+ efflux Efficacy,[6]; Thalamus,32 ± 10%
same,EC50,[6]; Thalamus,10 ± 10 µM
same,Hit,[7],FALSE
same,Inhibition,[7]; [3H]Kainic acid,-6.93%
same,EC50,"α6-GFPβ2DMβ3 nAChRs; range over patch-clamp recordings and [3H]-dopamine release assays, read-out: EC50 for α6β2* nAChRs",0.03 to 0.06 µM
same,EC50,"α6-GFPβ2DMβ3 nAChRs; α6β2β3 transfected in Neuro-2a cells, read-out: Patch clamp EC50",0.04 ± 0.01 µM
same,EC50,α4-GFPβ2DM nAChRs,0.1 ± 0.02 µM
same,Hit,"Angiotensin II, AT1 (h)",FALSE
same,Inhibition,"Angiotensin II, AT1 (h); [125I]-(Sar1-Ile8) Angiotensin",24.85%
same,Half-life compared to varenicline,[8],~7 fold
same,half-life,[8],1.32 h
same,microsomal CLint,[8]; read-out: Clearance,18 µL/min/mg
